Measurements: patent publication US20140121101A1, “TERNARY FUNGICIDAL COMPOSITIONS COMPRISING A DITHIINO-TETRACARBOXAMIDE FUNGICIDE” (BAYER INTELLECTUAL PROPERTY GMBH, priority 2011, published 2014)

Tested on: Alternaria solani
Assay: Alternaria test (tomatoes)/preventive
Assay type: in vivo
Conditions: tomato plants, preventive spray, evaluated 3 days after inoculation
Procedure: Alternaria Test (Tomatoes)/Preventive [table] To produce a suitable preparation of active compound, 1 part by weight of active compound is mixed with the stated amounts of solvent and emulsifier, and the concentrate is diluted with water to the desired concentration. To test for preventive activity, young plants are sprayed with the preparation of active compound at the stated rate of application. After the spray coating has dried on, the plants are inoculated with an aqueous spore suspension of Alternaria solani. The plants are then placed in an incubation cabinet at approximately 20° C. and a relative atmospheric humidity of 100%. The test is evaluated 3 days after the inoculation. 0% means an efficacy which corresponds to that of the untreated control while an efficacy of 100% means that no disease is observed.

Compound	Efficacy in % found (activity found) (0.5 ppm a.i.) [%]	Efficacy in % found (activity found) (5 ppm a.i.) [%]
OC(Cc1ccccc1Cl)(Cn1nc[nH]c1=S)C1(Cl)CC1 (stereo not drawn) [(2.41), prothioconazole]	4	–
CON=C(C(=O)OC)c1ccccc1CON=C(C)c1cccc(C(F)(F)F)c1 [(3.22), trifloxystrobin]	29	–
Cn1c(=O)c2sc3c(=O)n(C)c(=O)c3sc2c1=O [(1.1), 2,6-dimethyl-1H,5H-[1,4]dithiino[2,3-c:5,6-c′]dipyrrole-1,3,5,7(2H,6H)-tetrone]	–	0
